Reference: US9499553B2 (CHUGAI SEIYAKU KABUSHIKI KAISHA, priority 2013, dated 2016)
Read-outs that look alike come from different tables or passages of the source.

Target: T1, human NaPi-IIb (Homo sapiens, UniProt O95436)
T1 construct: expressed in transfected cells
T1 sequence (O95436 1-690): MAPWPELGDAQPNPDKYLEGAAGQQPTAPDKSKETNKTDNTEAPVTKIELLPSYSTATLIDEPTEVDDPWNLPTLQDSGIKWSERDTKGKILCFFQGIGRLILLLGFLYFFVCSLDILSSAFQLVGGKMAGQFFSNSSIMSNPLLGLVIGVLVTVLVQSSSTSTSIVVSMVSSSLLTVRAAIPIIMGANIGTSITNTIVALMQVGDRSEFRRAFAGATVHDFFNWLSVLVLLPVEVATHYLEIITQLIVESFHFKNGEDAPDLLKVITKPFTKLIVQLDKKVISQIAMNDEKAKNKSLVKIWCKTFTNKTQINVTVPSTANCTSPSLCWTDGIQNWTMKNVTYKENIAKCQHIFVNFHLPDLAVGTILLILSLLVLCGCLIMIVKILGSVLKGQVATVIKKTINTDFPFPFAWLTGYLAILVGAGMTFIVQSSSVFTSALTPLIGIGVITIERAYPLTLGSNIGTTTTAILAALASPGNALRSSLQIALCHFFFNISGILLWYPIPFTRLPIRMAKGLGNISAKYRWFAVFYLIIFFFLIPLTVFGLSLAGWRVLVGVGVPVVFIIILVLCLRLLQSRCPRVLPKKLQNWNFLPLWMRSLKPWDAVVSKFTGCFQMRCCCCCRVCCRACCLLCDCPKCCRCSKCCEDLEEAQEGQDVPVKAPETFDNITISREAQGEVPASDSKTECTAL
Test: Inhibitory effect on 33PO4 uptake into human NaPi-IIb-expressing CHO cells
Assay type: cell-based
Procedure, shortened: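 Uptake of ³³PO4 was measured by scintillation counting after ice-cold buffer A washes. Cells were CHO stably expressing human NaPi-IIb, seeded overnight, and exposed to ³³PO4 in buffer A at room temperature.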

[1] = read-out: IC50 against 33PO4 uptake into human NaPi-IIb-expressing cells

Structure (SMILES)	IC50 (read-out: IC50) [µM]	IC50 [1] [µM]
CSc1cc(-c2cc(C(F)(F)F)ccc2NC(=O)C2=C(O)[C@@]3(C)CCCN3N(Cc3cccc(F)c3F)C2=O)cnc1C#N [Example 113, (4aR)—N-[2-(6-Cyano-5-methylsulfanylpyridin-3-yl)-4-(trifluoromethyl)phenyl]-1-[(2,3-difluorophenyl)methyl]-4-hydroxy-4a-methyl-2-oxo-6,7-dihydro-5H-pyrrolo[1,2-b]pyridazine-3-carboxamide]	15.5	
C[C@]12CCCN1N(Cc1ccc(CCCCCCC(=O)O)c(F)c1F)C(=O)C(C(=O)Nc1ccc(Cl)cc1-c1ccc(C(F)(F)F)nc1)=C2O [Example 116, 7-[4-[[(4aR)-3-[[4-Chloro-2-[6-(trifluoromethyl)pyridin-3-yl]phenyl]carbamoyl]-4-hydroxy-4a-methyl-2-oxo-6,7-dihydro-5H-pyrrolo[1,2-b]pyridazin-1-yl]methyl]-2,3-difluorophenyl]heptanoate]	8.1	
C[C@]12CCCN1N(Cc1cccc(F)c1F)C(=O)C(C(=O)Nc1ccc(C(F)(F)F)cc1-c1ccc(C(F)(F)F)nc1)=C2O [Example 90]	2.4	
C[C@]12CCCN1N(Cc1cccc(F)c1F)C(=O)C(C(=O)Nc1ccc(Cl)cc1-c1ccc(C(F)(F)F)nc1)=C2O [Example 86]	5.3	
CN1[C@@H](C(C)(C)C)C(O)=C(C(=O)Nc2ccc(Cl)cc2-c2cc(C(F)(F)F)ncn2)C(=O)N1Cc1cccc(F)c1F [Example 237]	12.8	
CN(C)S(=O)(=O)c1ccc(-c2nc(C(F)(F)F)ccc2NC(=O)C2=C(O)[C@@]3(C)CCCN3N(Cc3cccc(F)c3F)C2=O)cc1 [Example 87]	8.3	
C[C@]12CCCN1N(Cc1ccccc1)C(=O)C(C(=O)Nc1ccc(C(F)(F)F)cc1-c1cc(C(F)(F)F)ncn1)=C2O [Example 188]	6.1	
CN1N(Cc2cccc(F)c2F)C(=O)C(C(=O)Nc2ccc(Cl)cc2-c2ccc(C(F)(F)F)nc2)=C(O)C12CCC2 [Example 256]	4.4	
CC(C)[C@@H]1C(O)=C(C(=O)Nc2ccc(Cl)cc2-c2cc(C(F)(F)F)ncn2)C(=O)N(Cc2cccc(F)c2F)N1C [Example 250]	17.9	
Cc1c(C#N)ncnc1-c1cc(C(F)(F)F)ccc1NC(=O)C1=C(O)C(C)(C)N(C)N(Cc2cccc(F)c2F)C1=O [Example 311]	8.2	

More lines, now with the values ahead:

IC50 (read-out: IC50) [µM]	IC50 [1] [µM]	Structure (SMILES)
	20.9	CN(C)C(=O)N1CCN(CCOc2ccc(CN3C(=O)C(C(=O)Nc4ccc(C(F)(F)F)cc4-c4cc(C(F)(F)F)ncn4)=C(O)C4(CCC4)N3C)c(F)c2F)CC1 [Example 364]
	6.3	CN1N(Cc2ccc(OC3COC3)c(F)c2F)C(=O)C(C(=O)Nc2ccc(C(F)(F)F)cc2-c2cc(C(F)(F)F)ncn2)=C(O)C12CCC2 [Example 403, 6-(2,3-Difluoro-4-(oxetan-3-yloxy)benzyl)-9-hydroxy-5-methyl-7-oxo-N-(4-(trifluoromethyl)-2-(6-(trifluoromethyl)pyrimidin-4-yl)phenyl)-5,6-diazaspiro[3.5]non-8-ene-8-carboxamide]
	27.7	COCCN1CC[C@@H](Oc2ccc(CN3C(=O)C(C(=O)Nc4ccc(C(F)(F)F)cc4-c4cc(C(F)(F)F)ncn4)=C(O)C4(CCC4)N3C)c(F)c2F)C1 [Example 405, 6-[[2,3-Difluoro-4-[(3R)-1-(2-methoxyethyl)pyrrolidin-3-yl]oxyphenyl]methyl]-9-hydroxy-5-methyl-7-oxo-N-[4-(trifluoromethyl)-2-[6-(trifluoromethyl)pyrimidin-4-yl]phenyl]-5,6-diazaspiro[3.5]non-8-ene-8-carboxamide]
	8.3	COCC(C)(C)N(C)CCOc1ccc(CN2C(=O)C(C(=O)Nc3ccc(C(F)(F)F)cc3-c3cc(C(F)(F)F)ncn3)=C(O)C3(CCC3)N2C)c(F)c1F [Example 349]
	6.2	CN1N(Cc2ccc(OCCCCCOC[C@H](O)CO)c(F)c2F)C(=O)C(C(=O)Nc2ccc(C(F)(F)F)cc2-c2ccc(C(F)(F)F)nc2)=C(O)C12CCC2 [Example 385]
	17.4	CN1N(Cc2ccc(OCCOCCNC(=O)[C@@H](O)[C@H](O)[C@@H](O)[C@@H](O)CO)c(F)c2F)C(=O)C(C(=O)Nc2ccc(C(F)(F)F)cc2-c2cc(C(F)(F)F)ncn2)=C(O)C12CCCC2 [Example 427]
